Test system: 624824-186-R-J3-PDC multicell spheroids, viability
Experiment: Anticancer human tumor 624824-186-R-J3-PDC patient-derived colon adenocarcinoma cell line growth inhibition [PI3K]
Settings: for IC50: curve of first compound; for viability, T/C: stronger effect = lower value
Source text: Combinatorial screen of targeted agents with the PI3K inhibitors inavolisib, alpelisib, duvelisib, and copanlisib in multi-cell type tumor spheroids
A high-throughput screen of multi-cell type tumor spheroids was designed to identify active combinations of targeted small molecules and PI3K pathway inhibitors. Complex spheroids include a stromal component modeled by human endothelial cells (HUVEC) and fibroblasts modeled by human mesenchymal stem cells (MSCs). The concentration ranges selected for each drug and investigational agent were based upon clinically achievable concentrations if the clinical Cmax of the agent was known.
Compounds. The drugs and investigational agents: inavolisib (NSC800729), alpelisib (NSC765974), duvelisib (NSC772469), copanlisib (NSC816437), ipatasertib (NSC767898), afuresertib (NSC778305), talazoparib (NSC767125), sapanisertib (NSC764658), selumetinib (NSC741078), tovorafenib (DAY101, NSC766906), vemurafenib (NSC761431), ravoxertinib (NSC781343), sotorasib (NSC818433), MRTX1133 (NSC 836407), abemaciclib (NSC 768073), palbociclib (NSC758247), venetoclax (NSC 766270), SY5609 (NSC837396), enzalutamide (NSC755605), and darolutamide (NSC825331), were obtained from the National Cancer Institute (NCI) Developmental Therapeutics Program Chemical Repository. The FDA-approved anticancer drug set is available from the NCI Developmental Therapeutics Program. […] The stock solutions were prepared in dimethyl sulfoxide (DMSO, Sigma-Aldrich, St. Louis, MO, cat. D2650) at 800-fold the tested concentration and stored at -70 degrees C prior to their use. All drugs and investigational agents were tested over a range starting from a high concentration at or near the clinical Cmax and decreasing in half-log increments. If the clinical Cmax for an agent had not been determined, the highest concentration tested was 10 microM.
Cell Culture. All cells were maintained in an incubator at 37 degrees C and 5% CO2 with 95% humidity. The PDC lines were cultured according to standard operating procedures established by the NCI PDMR (https://pdmr.cancer.gov/sops/default.htm). All PDCs were thawed and cultured in Matrigel-coated flasks prepared with a working solution of 1X Ham's F-12 nutrient mix, without supplementation (Invitrogen, Waltham, MA, cat. 11765054), 100 U/mL penicillin-streptomycin (Invitrogen, cat. 15140122), and 2.5% Matrigel (Corning Inc., Corning, NY, cat. 354248) for the first three passages. The 354836-022-R-J1-PDC, 475296-252-R-J1-PDC, and 997726-040-R-J2-PDC lines were cultured in 6A media, which includes advanced DMEM/F-12 (Thermo Fisher Scientific, cat. 12634028), 10 mM HEPES (Thermo Fisher Scientific, cat. 15630080), 1X GlutaMAX supplement (Thermo Fisher Scientific, cat. 35050061), 0.1 mg/mL primocin (InvivoGen, San Diego, CA, cat. ant-pm-2), 10% defined fetal bovine serum, heat inactivated (HyClone Laboratories Inc., Logan, UT, cat. SH30070.03HI), 50% L-WRN conditioned media (ATCC, cat. CRL-3276), 1.25 mM N-Acetyl-L-cysteine (Sigma-Aldrich, cat. A9165), 10 mM nicotinamide (Sigma-Aldrich, cat. N0636), 1X B-27 supplement (Thermo Fisher Scientific, cat. 17504044), 1X N-2 supplement (Thermo Fisher Scientific, cat. 17502048), and 10 microM Y-27632 dihydrochloride (Tocris Bioscience, Bristol, United Kingdom, cat. 1254). The 624824-186-R-J2-PDC line was cultured in 6C/Colon 1B media, which includes all 6A media components plus 50 ng/mL human EGF recombinant protein (Thermo Fisher Scientific, cat. PHG0311). […]

[1] = second compound 0.00316 µM, first compound 0.0316 µM
[2] = second compound 0.00316 µM, first compound 0.1 µM
[3] = second compound 0.00316 µM, first compound 0.316 µM
[4] = second compound 0.00316 µM, first compound 1 µM
[5] = second compound 0.01 µM, first compound 0.0316 µM
[6] = second compound 0.01 µM, first compound 0.1 µM
[7] = second compound 0.01 µM, first compound 0.316 µM
[8] = second compound 0.01 µM, first compound 1 µM
[9] = second compound 0.0316 µM, first compound 0.0316 µM
[10] = second compound 0.0316 µM, first compound 0.1 µM
[11] = second compound 0.0316 µM, first compound 0.316 µM
[12] = second compound 0.0316 µM, first compound 1 µM
[13] = second compound 0.1 µM, first compound 0.0316 µM
[14] = second compound 0.1 µM, first compound 0.1 µM
[15] = second compound 0.1 µM, first compound 0.316 µM
[16] = second compound 0.1 µM, first compound 1 µM
[17] = second compound 0.316 µM, first compound 0.0316 µM
[18] = second compound 0.316 µM, first compound 0.1 µM
[19] = second compound 0.316 µM, first compound 0.316 µM
[20] = second compound 0.316 µM, first compound 1 µM
[21] = second compound 1 µM, first compound 0.0316 µM
[22] = second compound 1 µM, first compound 0.1 µM
[23] = second compound 1 µM, first compound 0.316 µM
[24] = second compound 1 µM, first compound 1 µM
[25] = second compound 0.00316 µM, first compound 3.16 µM
[26] = second compound 0.00316 µM, first compound 10 µM
[27] = second compound 0.01 µM, first compound 3.16 µM
[28] = second compound 0.01 µM, first compound 10 µM
[29] = second compound 0.0316 µM, first compound 3.16 µM
[30] = second compound 0.0316 µM, first compound 10 µM
[31] = second compound 0.1 µM, first compound 3.16 µM
[32] = second compound 0.1 µM, first compound 10 µM
[33] = second compound 0.316 µM, first compound 3.16 µM
[34] = second compound 0.316 µM, first compound 10 µM
[35] = second compound 1 µM, first compound 3.16 µM
[36] = second compound 1 µM, first compound 10 µM
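Note: spheroids exposed to agents for seven days before luminescence read.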
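Throughout, for viability, T/C: luminescent signal used as a stand-in for spheroid viability; percent viability relative to DMSO vehicle control wells taken as 100%.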

With `CCN1CCN(Cc2ccc(Nc3ncc(F)c(-c4cc(F)c5nc(C)n(C(C)C)c5c4)n3)nc2)CC1` + CC(Nc1ccc2c(c1)OCCn1cc(N3C(=O)OCC3C(F)F)nc1-2)C(N)=O the IC50 (second compound 0.00316 µM) was > 1000 nM, the IC50 (second compound 0.01 µM) was > 1000 nM and the IC50 (second compound 0.0316 µM) was > 1000 nM. The IC50 (second compound 0.1 µM) was > 1000 nM, the IC50 (second compound 0.316 µM) was > 1000 nM and the IC50 (second compound 1 µM) was 287 nM. The viability, T/C (second compound 0.00316 µM, first compound 0.00316 µM) was 99.2%, the viability, T/C (second compound 0.00316 µM, first compound 0.01 µM) was 96.2% and the viability, T/C [1] was 106%. For the same compound, the viability, T/C [2] was 101%, the viability, T/C [3] was 93.2% and the viability, T/C [4] was 97.1%. The viability, T/C (second compound 0.01 µM, first compound 0.00316 µM) was 101%, the viability, T/C (second compound 0.01 µM, first compound 0.01 µM) was 89% and the viability, T/C [5] was 114%. For the same compound, the viability, T/C [6] was 102%, the viability, T/C [7] was 104% and the viability, T/C [8] was 90%. The viability, T/C (second compound 0.0316 µM, first compound 0.00316 µM) was 101%, the viability, T/C (second compound 0.0316 µM, first compound 0.01 µM) was 97.8% and the viability, T/C [9] was 102%. For the same compound, the viability, T/C [10] was 105%, the viability, T/C [11] was 89.6% and the viability, T/C [12] was 76.3%. For the same compound, the viability, T/C (second compound 0.1 µM, first compound 0.00316 µM) was 94.6%, the viability, T/C (second compound 0.1 µM, first compound 0.01 µM) was 96% and the viability, T/C [13] was 103%. It also gave a viability, T/C [14] of 105%, a viability, T/C [15] of 75.2% and a viability, T/C [16] of 58.3%. The viability, T/C (second compound 0.316 µM, first compound 0.00316 µM) was 94.5%, the viability, T/C (second compound 0.316 µM, first compound 0.01 µM) was 92.9% and the viability, T/C [17] was 105%. For the same compound, the viability, T/C [18] was 77.2%, the viability, T/C [19] was 54.6% and the viability, T/C [20] was 49%. For the same compound, the viability, T/C (second compound 1 µM, first compound 0.00316 µM) was 95.6%, the viability, T/C (second compound 1 µM, first compound 0.01 µM) was 87.6% and the viability, T/C [21] was 81.1%. It also gave a viability, T/C [22] of 56.5%, a viability, T/C [23] of 45.4% and a viability, T/C [24] of 52.5%.

With `Cn1ncc(Cl)c1-c1cc(C(=O)NC(CN)Cc2cccc(F)c2)sc1Cl` (stereo unspecified) + CC(Nc1ccc2c(c1)OCCn1cc(N3C(=O)OCC3C(F)F)nc1-2)C(N)=O the IC50 (second compound 0.00316 µM) was > 10000 nM, the IC50 (second compound 0.01 µM) was > 10000 nM and the IC50 (second compound 0.0316 µM) was > 10000 nM. The IC50 (second compound 0.1 µM) was > 10000 nM, the IC50 (second compound 0.316 µM) was > 10000 nM and the IC50 (second compound 1 µM) was 3120 nM. It also gave a viability, T/C [1] of 111%, a viability, T/C [2] of 105% and a viability, T/C [3] of 103%. The viability, T/C [4] was 74.1%, the viability, T/C [25] was 55.4% and the viability, T/C [26] was 80%. It also gave a viability, T/C [5] of 103%, a viability, T/C [6] of 99.3% and a viability, T/C [7] of 92.9%. It also gave a viability, T/C [8] of 70%, a viability, T/C [27] of 52.4% and a viability, T/C [28] of 84%. It also gave a viability, T/C [9] of 104%, a viability, T/C [10] of 99.4% and a viability, T/C [11] of 90.2%. The viability, T/C [12] was 66.7%, the viability, T/C [29] was 49.5% and the viability, T/C [30] was 83.1%. It also gave a viability, T/C [13] of 103%, a viability, T/C [14] of 97.3% and a viability, T/C [15] of 91.4%. It also gave a viability, T/C [16] of 69.2%, a viability, T/C [31] of 51.4% and a viability, T/C [32] of 79.2%. It also gave a viability, T/C [17] of 100%, a viability, T/C [18] of 93% and a viability, T/C [19] of 88.5%. For the same compound, the viability, T/C [20] was 64.1%, the viability, T/C [33] was 42% and the viability, T/C [34] was 62.4%. The viability, T/C [21] was 90.1%, the viability, T/C [22] was 90.6% and the viability, T/C [23] was 76.7%. It also gave a viability, T/C [24] of 63.7%, a viability, T/C [35] of 44.3% and a viability, T/C [36] of 50.9%.

Compound `Cn1nccc1Nc1nccc(-c2ccn(C(CO)c3ccc(Cl)c(F)c3)c(=O)c2)n1` (stereo unspecified) + CC(Nc1ccc2c(c1)OCCn1cc(N3C(=O)OCC3C(F)F)nc1-2)C(N)=O has an IC50 (second compound 0.00316 µM) of 8240 nM, an IC50 (second compound 0.01 µM) of 4070 nM and an IC50 (second compound 0.0316 µM) of 2580 nM. It also gave an IC50 (second compound 0.1 µM) of 1270 nM, an IC50 (second compound 0.316 µM) of 628 nM and an IC50 (second compound 1 µM) of 341 nM. The viability, T/C [1] was 104%, the viability, T/C [2] was 91.1% and the viability, T/C [3] was 85%. The viability, T/C [4] was 75.9%, the viability, T/C [25] was 58.8% and the viability, T/C [26] was 48.1%. For the same compound, the viability, T/C [5] was 93.9%, the viability, T/C [6] was 93% and the viability, T/C [7] was 90%. It also gave a viability, T/C [8] of 65.4%, a viability, T/C [27] of 54.9% and a viability, T/C [28] of 43.9%. The viability, T/C [9] was 97.5%, the viability, T/C [10] was 107% and the viability, T/C [11] was 80.7%. The viability, T/C [12] was 68.2%, the viability, T/C [29] was 46.2% and the viability, T/C [30] was 37.2%. For the same compound, the viability, T/C [13] was 102%, the viability, T/C [14] was 95% and the viability, T/C [15] was 80.6%. The viability, T/C [16] was 52.2%, the viability, T/C [31] was 36.4% and the viability, T/C [32] was 24.8%. It also gave a viability, T/C [17] of 105%, a viability, T/C [18] of 95% and a viability, T/C [19] of 76.6%. For the same compound, the viability, T/C [20] was 31.7%, the viability, T/C [33] was 20.2% and the viability, T/C [34] was 17.4%. It also gave a viability, T/C [21] of 84.1%, a viability, T/C [22] of 81.1% and a viability, T/C [23] of 51.9%. The viability, T/C [24] was 20.5%, the viability, T/C [35] was 15.1% and the viability, T/C [36] was 15.3%.
